# Source: PubChem BioAssay AID624129 (Sanford-Burnham Center for Chemical Genomics, 2012)
# Active and inactive are the calls of the source. How the calls were made is not given here.
# Key:
# Test in all cases: CXCR6 receptor antagonists, dose response, cell-based, beta-arrestin, DiscoveRx, APJ panel, uHTS hits (AID 624129)
# [1] = target: Apelin receptor (Homo sapiens) (UniProt P35414); settings: CXCR6 beta-arrestin (DiscoveRx) antagonist cell assay, APJ
# [2] = target: C-X-C chemokine receptor type 6 (Homo sapiens) (UniProt O00574); settings: CXCR6 beta-arrestin (DiscoveRx) antagonist cell assay; for inhibition: CXCR6, run 1, dose range 2, at 80 µM (top of the series)
# Sequence of C-X-C chemokine receptor type 6 (Homo sapiens) (O00574 whole entry, looked up): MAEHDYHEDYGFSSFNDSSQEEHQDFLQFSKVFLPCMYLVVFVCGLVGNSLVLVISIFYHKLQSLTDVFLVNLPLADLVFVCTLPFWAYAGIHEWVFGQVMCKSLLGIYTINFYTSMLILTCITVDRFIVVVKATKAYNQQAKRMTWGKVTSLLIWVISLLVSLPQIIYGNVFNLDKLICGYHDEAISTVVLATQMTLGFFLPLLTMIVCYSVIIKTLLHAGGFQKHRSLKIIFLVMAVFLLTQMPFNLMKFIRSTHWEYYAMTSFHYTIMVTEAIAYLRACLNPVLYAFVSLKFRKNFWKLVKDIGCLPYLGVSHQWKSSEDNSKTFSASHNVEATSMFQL
# [3] = target: Beta-galactosidase (Escherichia coli) (UniProt Q8VNN2); settings: CXCR6 beta-arrestin (DiscoveRx) antagonist cell assay, b-galactosidase
# Sequence of Beta-galactosidase (Escherichia coli) (Q8VNN2 whole entry, looked up): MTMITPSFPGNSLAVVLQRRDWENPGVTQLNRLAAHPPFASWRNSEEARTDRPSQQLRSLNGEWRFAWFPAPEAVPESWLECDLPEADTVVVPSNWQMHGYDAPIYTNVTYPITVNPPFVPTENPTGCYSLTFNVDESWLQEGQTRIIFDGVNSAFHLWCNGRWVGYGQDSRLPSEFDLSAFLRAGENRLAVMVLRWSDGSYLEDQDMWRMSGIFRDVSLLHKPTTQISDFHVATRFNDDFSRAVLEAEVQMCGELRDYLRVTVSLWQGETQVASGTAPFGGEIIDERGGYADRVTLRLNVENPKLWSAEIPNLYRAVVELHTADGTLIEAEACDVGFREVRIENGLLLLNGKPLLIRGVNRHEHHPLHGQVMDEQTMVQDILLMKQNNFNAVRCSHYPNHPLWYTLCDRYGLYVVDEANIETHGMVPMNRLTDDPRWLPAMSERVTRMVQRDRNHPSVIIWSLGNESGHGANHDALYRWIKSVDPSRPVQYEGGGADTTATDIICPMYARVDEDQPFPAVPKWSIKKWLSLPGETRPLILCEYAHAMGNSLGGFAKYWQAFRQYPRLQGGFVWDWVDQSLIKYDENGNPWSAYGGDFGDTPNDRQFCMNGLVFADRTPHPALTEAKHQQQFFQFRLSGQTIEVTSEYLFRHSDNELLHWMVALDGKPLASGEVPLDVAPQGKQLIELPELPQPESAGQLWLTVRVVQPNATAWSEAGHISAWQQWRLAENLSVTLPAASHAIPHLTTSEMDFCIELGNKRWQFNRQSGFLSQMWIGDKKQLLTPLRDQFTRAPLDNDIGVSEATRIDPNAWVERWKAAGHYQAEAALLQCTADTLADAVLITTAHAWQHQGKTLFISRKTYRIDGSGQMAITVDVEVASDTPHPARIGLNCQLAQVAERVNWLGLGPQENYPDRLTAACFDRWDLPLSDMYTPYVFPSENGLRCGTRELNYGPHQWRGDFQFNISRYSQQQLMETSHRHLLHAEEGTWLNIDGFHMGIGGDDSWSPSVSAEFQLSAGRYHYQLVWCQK
# [4] = target: C-C chemokine receptor type 6 (Homo sapiens) (UniProt P51684); settings: CXCR6 beta-arrestin (DiscoveRx) antagonist cell assay
# [5] = dose range 1, mean IC50 across replicates
# [6] = CXCR6, dose range 1, mean IC50 across replicates
# [7] = CCR6, dose range 1, mean IC50 across replicates
IC50 ([1]; dose range 1),"IC50 [1, 5]","IC50 ([1]; run 2, dose range 1)","IC50 ([1]; run 3, dose range 1)","IC50 ([2]; CXCR6, dose range 1)","IC50 [2, 6]","IC50 ([2]; CXCR6, run 1, dose range 2)","IC50 ([2]; CXCR6, run 2, dose range 1)","IC50 ([2]; CXCR6, run 2, dose range 2)",IC50 ([3]; dose range 1),"IC50 [3, 5]","IC50 ([4]; CCR6, dose range 1)","IC50 [4, 7]","IC50 ([4]; CCR6, run 2, dose range 1)",inhibition [2],Structure (SMILES)
0.798 µM,1.59 µM,2.38 µM,> 80 µM,1.4 µM,1.11 µM,0.803 µM,1.23 µM,1 µM,> 80 µM (inactive),> 80 µM,0.66 µM,1.03 µM,1.4 µM,–,O=C(Nc1nc2c(F)cc(F)cc2s1)c1ccccn1
4.87 µM,5.15 µM,5.63 µM,4.93 µM,4.96 µM,3.83 µM,3.14 µM,4.53 µM,2.7 µM,> 80 µM (inactive),> 80 µM,3.58 µM,4.25 µM,4.93 µM,–,Cc1ccc(/C=N/NC(=S)N2CCOCC2)cc1
22.9 µM,37 µM,31.3 µM,56.9 µM,inactive,18.3 µM,–,8.04 µM,–,inactive,50.1 µM,–,30.5 µM,30.5 µM,93.1%,Cc1cc(S(=O)(=O)c2ccc(Cl)cc2)nc(S(=O)(=O)c2ccc(Cl)cc2)c1C#N
–,> 80 µM,> 80 µM,> 80 µM,> 80 µM (inactive),> 80 µM,–,> 80 µM,–,> 80 µM (inactive),> 80 µM,–,> 80 µM,> 80 µM,-55.9%,O=C(Nc1nnc(-c2cccs2)o1)c1cccc(C(F)(F)F)c1
7.36 µM,6.04 µM,4.7 µM,6.06 µM,4.22 µM,4.65 µM,4.99 µM,4.74 µM,4.65 µM,> 80 µM (inactive),> 80 µM,3.47 µM,3.87 µM,4.26 µM,–,CCC(=O)OCCNc1cc(Sc2nccn2C)c2nonc2c1[N+](=O)[O-]
16.9 µM,17.4 µM,20.5 µM,14.8 µM,inactive,11.3 µM,–,10.5 µM,–,> 80 µM (inactive),> 80 µM,7.51 µM,8.91 µM,10.3 µM,125%,CC(=NNc1nc2ccccc2s1)c1ncccn1
3.23 µM,3.82 µM,4.91 µM,3.34 µM,4.45 µM,4.17 µM,–,3.89 µM,–,> 80 µM (inactive),> 80 µM,2.48 µM,2.71 µM,2.94 µM,90.2%,Oc1c(Cl)cc(Cl)c2cccnc12
3.31 µM,4.62 µM,5.92 µM,> 80 µM,1.57 µM,1.48 µM,–,1.38 µM,–,> 80 µM (inactive),> 80 µM,1.27 µM,1.51 µM,1.75 µM,105%,Cc1ccccc1Oc1cc(-n2ncc(Cl)c(Cl)c2=O)ncn1
5.83 µM,5.59 µM,4.73 µM,6.22 µM,inactive,15.5 µM,3.86 µM,12.6 µM,3.74 µM,> 80 µM (inactive),> 80 µM,3.22 µM,3.87 µM,4.51 µM,–,C/C(=N\NC(=O)C1COc2ccccc2O1)c1ccccn1 (stereo not given)
12.3 µM,12.3 µM,> 80 µM,> 80 µM,4.14 µM,3.58 µM,1.54 µM,6.74 µM,1.9 µM,> 80 µM (inactive),> 80 µM,7.01 µM,5.66 µM,4.3 µM,–,CCOC(=O)c1c(C)oc2c1c(C=NCc1ccccn1)c(O)c1ccccc12
11.2 µM,10.6 µM,8.84 µM,11.7 µM,10.3 µM,9.86 µM,9.08 µM,9.24 µM,10.8 µM,> 80 µM (inactive),> 80 µM,4.66 µM,5.44 µM,6.22 µM,–,CC1(C)CC(=O)C2=C(C1)OC1=C(C(=O)CC(C)(C)C1)C2c1ccc(O)cc1O
–,49.6 µM,> 80 µM,49.6 µM,> 80 µM (inactive),> 80 µM,–,> 80 µM,–,> 80 µM (inactive),> 80 µM,31.3 µM,29.2 µM,27.2 µM,118%,COc1ccc(-n2c(O)c(/C=N/Nc3nc(C)cc(C)n3)c3ccccc3c2=O)cc1OC
–,> 80 µM,> 80 µM,> 80 µM,> 80 µM (inactive),> 80 µM,–,> 80 µM,–,> 80 µM (inactive),> 80 µM,–,> 80 µM,> 80 µM,-64.9%,O=[N+]([O-])c1cc([N+](=O)[O-])c2cc3ccccc3nc2c1
> 80 µM (inactive),> 80 µM,> 80 µM,> 80 µM,–,8.69 µM,8.09 µM,> 80 µM,9.29 µM,> 80 µM (inactive),> 80 µM,6.38 µM,30 µM,53.6 µM,–,CC(=O)OCCCNc1cc(Sc2nc3ccccc3s2)c2nonc2c1[N+](=O)[O-]
20.7 µM,21.4 µM,22.8 µM,20.7 µM,inactive,16.9 µM,–,18.3 µM,–,> 80 µM (inactive),> 80 µM,17.6 µM,19.3 µM,21.1 µM,126%,O=C(CSc1nc(-c2ccco2)cc(C(F)(F)F)n1)NCCCn1ccnc1
24.4 µM,18.1 µM,15.2 µM,14.7 µM,> 80 µM (inactive),> 80 µM,–,> 80 µM,–,> 80 µM (inactive),> 80 µM,–,34 µM,34 µM,63.6%,CC(C)(C)C(=O)NC(=S)NNC(=O)c1sc2ccccc2c1Cl
6.33 µM,5.69 µM,5.06 µM,5.67 µM,4.73 µM,4.87 µM,4.61 µM,5.18 µM,4.96 µM,> 80 µM (inactive),> 80 µM,3.27 µM,3.72 µM,4.17 µM,–,COc1ccc(C(=O)/C(=C\c2ccco2)N2C=CC=CC2=C(C#N)C#N)cc1

Structure (SMILES),IC50 ([1]; dose range 1),"IC50 [1, 5]","IC50 ([1]; run 2, dose range 1)","IC50 ([1]; run 3, dose range 1)","IC50 ([2]; CXCR6, dose range 1)","IC50 [2, 6]","IC50 ([2]; CXCR6, run 1, dose range 2)","IC50 ([2]; CXCR6, run 2, dose range 1)","IC50 ([2]; CXCR6, run 2, dose range 2)",IC50 ([3]; dose range 1),"IC50 [3, 5]","IC50 ([4]; CCR6, dose range 1)","IC50 [4, 7]","IC50 ([4]; CCR6, run 2, dose range 1)",inhibition [2]
CCCCCCCCn1sccc1=O,9.73 µM,8.1 µM,7.99 µM,6.58 µM,6.96 µM,8.16 µM,6.75 µM,8.67 µM,10.2 µM,> 80 µM (inactive),> 80 µM,6.52 µM,6.83 µM,7.14 µM,–
